# Measurements reported in publication PMC4942781, “A sodium channel inhibitor ISTX-I with a novel structure provides a new hint at the evolutionary link between two toxin folds” (Scientific Reports, 2016).
# Bridge positions count the residues as written; N and C are the ends. Ends that are not written are not given here.
# Test system: hNav1.8
# Assay: Whole-cell patch clamp, hNav1.8 in HEK293 cells
# Assay type: cell-based, human
# Settings: legend of Figure S3; concentration not given; 50 ms step to -10 mV, held at -80 mV
# Method: Electrophysiological studies.
# Currents were recorded from experimental cells using whole-cell patch clamptechnique at room temperature (22–25 °C). The patch pipettes were fabricated from borosilicate glass tubing using a two-stage vertical microelectrode puller (PC-10, Narishige, Japan). After establishing the whole-cell recording configuration, the resting potential was held at −80 mV for at least 5 min to allow adequate equilibration between the micropipette solution and the cell interior. The micropipette solution of sodium currents for dorsal root ganglion neurons contained (in mM): 105 CsF, 35 NaCl, 10 HEPES, 10 EGTA (pH 7.4). The external solution contained (in mM): 50 NaCl, 100 TEA.Cl, 2 KCl, 1.5 CaCl2, 10 HEPES, 1 MgCl2, and 5 glucose (pH 7.4). K+ currents were recorded using an internal solution containing the followings (in mM): KCl 140, MgCl2 2.5, HEPES 10, and EGTA 11 (pH 7.2). The external bathing solution contained the followings (in mM): NaCl 150, KCl 5, CaCl2 25, MgCl2 12, HEPES 10, and D-glucose 10 (pH 7.2). Calcium channel currents were measured using Ba2+ as the charge carrier. The external solution contained (in mM): 160 TEA-Cl, 10 HEPES, 2 BaCl2, 10 glucoses, adjusted to pH 7.4 with TEA-OH. […]
# Figure S1. […] The absorbance of the elution was monitored at 280 nm. […]
sequence,measurement,value
"LCSENGDCAADECCVDTVFEGDMVTRSCEKTTGNFTECPGLTPIA (disulfide 2-14, 8-28, 13-38) [ISTX-I]",effect on hNav1.8,No effect
